Literature values as cited in patent publication US20110123612A1, “PHARMACEUTICAL PREPARATION CONTAINING NON-DIHYDROPYRIDINE CALCIUM CHANNEL BLOCKER AND ANGIOTENSIN-2 RECEPTOR BLOCKER” (priority 2008, published 2011).

What was measured:
[1] = active losartan molecule released into blood
[2] = active form of losartan

SMILES: CCCCc1nc(Cl)c(CO)n1Cc1ccc(-c2ccccc2-c2nn[nH]n2)cc1 [losartan]
- time to peak blood concentration [1]: ≤ 1 h
- anti-hypertensive effects of the active form [2]: ≥ 10 fold
